For one data set, the target named is T1, Androgen receptor (AR) (Homo sapiens, UniProt P10275, T878A).
T1 construct: 5.5×10^5 LNCap cells were injected into each well of a 6-well plate; endogenous in cells; host or cells: LNCaP
T1 sequence (P10275 1-920 T878A): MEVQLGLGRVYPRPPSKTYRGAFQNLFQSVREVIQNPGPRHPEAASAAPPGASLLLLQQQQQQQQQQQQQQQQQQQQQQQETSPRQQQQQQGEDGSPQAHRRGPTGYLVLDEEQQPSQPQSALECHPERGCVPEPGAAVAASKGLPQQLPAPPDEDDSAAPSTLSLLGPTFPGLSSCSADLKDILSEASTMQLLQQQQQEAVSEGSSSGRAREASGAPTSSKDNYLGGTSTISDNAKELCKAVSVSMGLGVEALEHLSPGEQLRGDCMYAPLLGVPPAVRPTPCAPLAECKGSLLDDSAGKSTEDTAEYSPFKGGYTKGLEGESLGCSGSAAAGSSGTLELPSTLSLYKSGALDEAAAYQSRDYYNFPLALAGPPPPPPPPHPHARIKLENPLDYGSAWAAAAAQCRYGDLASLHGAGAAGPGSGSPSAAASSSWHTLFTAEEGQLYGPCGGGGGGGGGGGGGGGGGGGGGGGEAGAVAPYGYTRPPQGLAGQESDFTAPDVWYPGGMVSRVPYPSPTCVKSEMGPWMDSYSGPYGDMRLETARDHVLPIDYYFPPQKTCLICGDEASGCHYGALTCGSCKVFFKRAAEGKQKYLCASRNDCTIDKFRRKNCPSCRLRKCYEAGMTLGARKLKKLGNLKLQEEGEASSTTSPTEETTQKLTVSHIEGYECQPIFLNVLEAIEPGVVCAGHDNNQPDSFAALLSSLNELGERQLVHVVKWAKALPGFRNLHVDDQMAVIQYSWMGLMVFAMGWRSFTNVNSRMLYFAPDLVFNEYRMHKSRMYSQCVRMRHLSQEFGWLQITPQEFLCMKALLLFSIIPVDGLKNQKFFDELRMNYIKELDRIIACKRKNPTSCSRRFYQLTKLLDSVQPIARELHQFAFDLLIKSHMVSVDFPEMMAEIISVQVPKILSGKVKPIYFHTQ
Put plainly: Assessment of AR proteolytic activity (Western blotting of LNCap cell lysates). Type of data set: cell-based. To be noted: 24 hours of treatment, Western blotting quantified with Image J. In outline:
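LNCap cells seeded at 5.5×10^5 per well and treated with compound for 24 hours. Lysates prepared in RIPA buffer (pH 7.5, with protease inhibitors). AR protein levels assessed by Western blot with densitometric quantification.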

For data set [1], the system named is VCaP cells.
For data set [2], the system named is VCaP cells. Put plainly: Cytotoxicity assessment (Cell-titer-glo cell viability), VCaP. The conditions noted are these: read-out: VCaP (CC50); VCaP cells, 6 days of treatment, Cell-titer-glo, vs DMSO.

Each structure is given as a SMILES string. Like-named read-outs stand apart in the source and are kept apart here.

`CC1(C)C(NC(=O)c2ccc(N3CCN(CCCOC4CCN(C(=O)C5CN(c6ccc7nnn(C8CCC(=O)NC8=O)c(=O)c7c6)C5)CC4)CC3)cc2)C(C)(C)C1Oc1ccc(C#N)c(Cl)c1` (stereo not shown) [Example 36, N-((1r,3r)-3-(3-chloro-4-cyanophenoxy)-2,2,4,4-tetramethylcyclobutyl)-4-(4-(3-((1-(1-(3-(2,6-dioxopiperidin-3-yl)-4-oxo-3,4-dihydrobenzo[d][1,2,3]triazin-6-yl)azetidine-3-carbonyl)piperidin-4-yl)oxy)propyl)piperazin-1-yl)benzamide]: on Androgen receptor (AR), the “Degradation (1 μM treated in LNCaP, % AR remaining)” value worked out at 9.8%. Besides, the CC50 in the data set with VCaP cells [1] is 36.5 nM.

For the molecule `CC1(C)C(NC(=O)c2ccc(N3CCN(CCCOC4CCN(C(=O)COc5ccc6nnn(C7CCC(=O)NC7=O)c(=O)c6c5)CC4)CC3)cc2)C(C)(C)C1Oc1ccc(C#N)c(Cl)c1` (stereo not shown) [Example 38, N-((1r,3r)-3-(3-chloro-4-cyanophenoxy)-2,2,4,4-tetramethylcyclobutyl)-4-(4-(3-((1-(2-((3-(2,6-dioxopiperidin-3-yl)-4-oxo-3,4-dihydrobenzo[d][1,2,3]triazin-6-yl)oxy)acetyl)piperidin-4-yl)oxy)propyl)piperazin-1-yl)benzamide], the “Degradation (1 μM treated in LNCaP, % AR remaining)” value on Androgen receptor (AR) is given as 27.3%. Also, in the data set with VCaP cells [1], the CC50 turned out to be 43.2 nM.

Take `CC1(C)C(NC(=O)c2ccc(N3CCN(CC4CCN(CCNC(=O)C5CCN(c6ccc7nnn(C8CCC(=O)NC8=O)c(=O)c7c6)CC5)CC4)CC3)cc2)C(C)(C)C1Oc1ccc(C#N)c(Cl)c1` (stereo not shown) [Example 68, N-(2-(4-((4-(4-(((1r,3r)-3-(3-chloro-4-cyanophenoxy)-2,2,4,4-tetramethylcyclobutyl)carbamoyl)phenyl)piperazin-1-yl)methyl)piperidin-1-yl)ethyl)-1-(3-(2,6-dioxopiperidin-3-yl)-4-oxo-3,4-dihydrobenzo[d][1,2,3]triazin-6-yl)piperidine-4-carboxamide]: at Androgen receptor (AR), the “Degradation (1 μM treated in LNCaP, % AR remaining)” value was 26%. Also, the CC50 with VCaP cells [2] turned out to be 162 nM.

For `CC1(C)C(NC(=O)c2ccc(N3CC4CC3CN4C3CC4(CCN(C(=O)C5CCN(c6ccc7nnn(C8CCC(=O)NC8=O)c(=O)c7c6)CC5)CC4)C3)cc2)C(C)(C)C1Oc1ccc(C#N)c(Cl)c1` (stereo not shown) [Example 71, N-((1r,3r)-3-(3-chloro-4-cyanophenoxy)-2,2,4,4-tetramethylcyclobutyl)-4-(5-(7-(1-(3-(2,6-dioxopiperidin-3-yl)-4-oxo-3,4-dihydrobenzo[d][1,2,3]triazin-6-yl)piperidine-4-carbonyl)-7-azaspiro[3.5]nonan-2-yl)-2,5-diazabicyclo[2.2.1]heptan-2-yl)benzamide], the “Degradation (1 μM treated in LNCaP, % AR remaining)” value at Androgen receptor (AR) was 37%. In addition, in the data set with VCaP cells [2], the CC50 came to 70.5 nM.

As for `CC1(C)[C@H](NC(=O)c2ccc(C3CCN(CCOC4CCN(C(=O)C5CCN(c6ccc7nnn(C8CCC(=O)NC8=O)c(=O)c7c6)CC5)CC4)CC3)cc2)C(C)(C)[C@H]1Oc1ccc(C#N)c(Cl)c1` (stereo partly shown) [Example 74, N-((1r,3r)-3-(3-chloro-4-cyanophenoxy)-2,2,4,4-tetramethylcyclobutyl)-4-(1-(2-((1-(1-(3-(2,6-dioxopiperidin-3-yl)-4-oxo-3,4-dihydrobenzo[d][1,2,3]triazin-6-yl)piperidine-4-carbonyl)piperidin-4-yl)oxy)ethyl)piperidin-4-yl)benzamide], the “Degradation (1 μM treated in LNCaP, % AR remaining)” value at Androgen receptor (AR) came to 20%. In the data set on VCaP cells [2], the CC50 came to 73.2 nM.

For the molecule `CC1(C)C(NC(=O)c2ccc(N3CCN(CC4CCN(c5ccc6nnn(C7CCC(=O)NC7=O)c(=O)c6c5)CC4)CC3)nc2)C(C)(C)C1Oc1ccc(C#N)c(Cl)c1` (stereo not shown) [Example 78, N-((1r,3r)-3-(3-chloro-4-cyanophenoxy)-2,2,4,4-tetramethylcyclobutyl)-6-(4-((1-(3-(2,6-dioxopiperidin-3-yl)-4-oxo-3,4-dihydrobenzo[d][1,2,3]triazin-6-yl)piperidin-4-yl)methyl)piperazin-1-yl)nicotinamide], the “Degradation (1 μM treated in LNCaP, % AR remaining)” value on Androgen receptor (AR) worked out at 24%. For the same molecule, the cytotoxic concentration (CC50) with VCaP cells [2] turned out to be 7.68 nM.

As for `CC1(C)C(NC(=O)c2cnc(N3CCN(CC4CCN(c5ccc6nnn(C7CCC(=O)NC7=O)c(=O)c6c5)CC4)CC3)cn2)C(C)(C)C1Oc1ccc(C#N)c(Cl)c1` (stereo not shown) [Example 79, N-((1r,3r)-3-(3-chloro-4-cyanophenoxy)-2,2,4,4-tetramethylcyclobutyl)-5-(4-((1-(3-(2,6-dioxopiperidin-3-yl)-4-oxo-3,4-dihydrobenzo[d][1,2,3]triazin-6-yl)piperidin-4-yl)methyl)piperazin-1-yl)pyrazine-2-carboxamide], the “Degradation (1 μM treated in LNCaP, % AR remaining)” value on Androgen receptor (AR) was 45%. For the same molecule, the CC50 with VCaP cells [2] was 200 nM.

For the molecule `CC1(C)C(NC(=O)c2ccc(N3CCN(CC4CCN(C(=O)C5CN(c6ccc7nnn(C8CCC(=O)NC8=O)c(=O)c7c6)C5)CC4)CC3)nc2)C(C)(C)C1Oc1ccc(C#N)c(Cl)c1` (stereo not shown) [Example 80, N-((1r,3r)-3-(3-chloro-4-cyanophenoxy)-2,2,4,4-tetramethylcyclobutyl)-6-(4-((1-(1-(3-(2,6-dioxopiperidin-3-yl)-4-oxo-3,4-dihydrobenzo[d][1,2,3]triazin-6-yl)azetidine-3-carbonyl)piperidin-4-yl)methyl)piperazin-1-yl)nicotinamide], the “Degradation (1 μM treated in LNCaP, % AR remaining)” value at Androgen receptor (AR) stood at 56%. The CC50 in the data set with VCaP cells [2] came to 10 nM.

As to `CC1(C)C(NC(=O)c2ccc(N3CCN(CC4CCN(C(=O)C5CCN(c6ccc7nnn(C8CCC(=O)NC8=O)c(=O)c7c6)CC5)CC4)CC3)nc2)C(C)(C)C1Oc1ccc(C#N)c(Cl)c1` (stereo not shown) [Example 81, N-((1r,3r)-3-(3-chloro-4-cyanophenoxy)-2,2,4,4-tetramethylcyclobutyl)-6-(4-((1-(1-(3-(2,6-dioxopiperidin-3-yl)-4-oxo-3,4-dihydrobenzo[d][1,2,3]triazin-6-yl)piperidine-4-carbonyl)piperidin-4-yl)methyl)piperazin-1-yl)nicotinamide], the “Degradation (1 μM treated in LNCaP, % AR remaining)” value at Androgen receptor (AR) is given as 18%. Also, in the data set on VCaP cells [2], the CC50 turned out to be 23.8 nM.

In the case of `CC1(C)C(NC(=O)c2ccc(-c3cnn(C4CCN(CC5CCN(C(=O)C6CCN(c7ccc8nnn(C9CCC(=O)NC9=O)c(=O)c8c7)CC6)CC5)CC4)c3)cc2)C(C)(C)C1Oc1ccc(C#N)c(Cl)c1` (stereo not shown) [Example 82, N-((1r,3r)-3-(3-chloro-4-cyanophenoxy)-2,2,4,4-tetramethylcyclobutyl)-4-(1-(1-((1-(1-(3-(2,6-dioxopiperidin-3-yl)-4-oxo-3,4-dihydrobenzo[d][1,2,3]triazin-6-yl)piperidine-4-carbonyl)piperidin-4-yl)methyl)piperidin-4-yl)-1H-pyrazol-4-yl)benzamide], the “Degradation (1 μM treated in LNCaP, % AR remaining)” value on Androgen receptor (AR) was 27%. Moreover, in the data set with VCaP cells [2], the CC50 worked out at 14.4 nM.

With `CC1(C)[C@H](NC(=O)c2ccc(C#CCC3CCN(C(=O)C4CCN(c5ccc6nnn(C7CCC(=O)NC7=O)c(=O)c6c5)CC4)CC3)cc2)C(C)(C)[C@H]1Oc1ccc(C#N)c(Cl)c1` (stereo partly shown) [Example 86, N-((1r,3r)-3-(3-chloro-4-cyanophenoxy)-2,2,4,4-tetramethylcyclobutyl)-4-(3-(1-(1-(3-(2,6-dioxopiperidin-3-yl)-4-oxo-3,4-dihydrobenzo[d][1,2,3]triazin-6-yl)piperidine-4-carbonyl)piperidin-4-yl)prop-1-yn-1-yl)benzamide], the “Degradation (1 μM treated in LNCaP, % AR remaining)” value on Androgen receptor (AR) is reported as 20%. For the same molecule, the CC50 in the data set on VCaP cells [2] amounted to 34.9 nM.

Source of the values: patent US20240018123A1, “COMPOUND FOR INHIBITING OR DISINTEGRATING ANDROGEN RECEPTOR, AND PHARMACEUTICAL USE THEREOF” (KOREA RESEARCH INSTITUTE OF CHEMICAL TECHNOLOGY, priority 2020, published 2024).
